Laboratory results: patent US10428080B2, “TBK/IKK inhibitor compounds and uses thereof” (Merck Patent GmbH, priority 2015, dated 2019)
Structures can show the parent of a compound that is named as a salt. Where two headings read alike, the source gives them in different places.

What was measured:
[1] = target: T1, IKKε (Homo sapiens, UniProt Q14164); test: IKKe Biochemical Assay; conditions: read-out: IKKε IC50
T1 sequence (Q14164 1-716): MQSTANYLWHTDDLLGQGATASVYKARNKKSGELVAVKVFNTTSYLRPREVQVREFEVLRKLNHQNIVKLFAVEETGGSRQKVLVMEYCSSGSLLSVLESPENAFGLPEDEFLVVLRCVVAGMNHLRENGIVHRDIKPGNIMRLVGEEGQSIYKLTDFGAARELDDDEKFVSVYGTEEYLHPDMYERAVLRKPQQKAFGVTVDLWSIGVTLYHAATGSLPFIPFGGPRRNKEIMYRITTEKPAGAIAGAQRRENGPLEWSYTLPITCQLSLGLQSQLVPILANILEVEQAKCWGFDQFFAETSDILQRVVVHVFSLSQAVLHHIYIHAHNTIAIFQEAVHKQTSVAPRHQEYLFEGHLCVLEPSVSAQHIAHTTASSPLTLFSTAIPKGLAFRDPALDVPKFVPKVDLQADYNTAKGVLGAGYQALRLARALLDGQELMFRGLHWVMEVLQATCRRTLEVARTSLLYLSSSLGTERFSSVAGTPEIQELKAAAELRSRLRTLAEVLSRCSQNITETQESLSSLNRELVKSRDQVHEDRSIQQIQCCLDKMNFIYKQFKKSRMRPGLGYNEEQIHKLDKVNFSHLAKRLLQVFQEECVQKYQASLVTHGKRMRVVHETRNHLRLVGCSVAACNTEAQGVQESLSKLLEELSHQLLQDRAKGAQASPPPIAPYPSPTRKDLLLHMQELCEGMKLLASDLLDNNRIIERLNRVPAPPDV
Method in brief: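 Activity was measured as mobility-shift separation of phosphorylated from unphosphorylated substrate on a LabChip EZ Reader. Compound was titrated from 30 uM final in 10 points, 1:4 steps, with 1% DMSO, and enzyme plus substrate reacted 90 min at 25° C before stop buffer. Control wells held 10 uM staurosporine.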

[2] = target: T2, TBK1 (Homo sapiens, UniProt Q9UHD2); test: TBK Biochemical Assay; conditions: read-out: TBK1 IC50
T2 sequence (Q9UHD2 1-729): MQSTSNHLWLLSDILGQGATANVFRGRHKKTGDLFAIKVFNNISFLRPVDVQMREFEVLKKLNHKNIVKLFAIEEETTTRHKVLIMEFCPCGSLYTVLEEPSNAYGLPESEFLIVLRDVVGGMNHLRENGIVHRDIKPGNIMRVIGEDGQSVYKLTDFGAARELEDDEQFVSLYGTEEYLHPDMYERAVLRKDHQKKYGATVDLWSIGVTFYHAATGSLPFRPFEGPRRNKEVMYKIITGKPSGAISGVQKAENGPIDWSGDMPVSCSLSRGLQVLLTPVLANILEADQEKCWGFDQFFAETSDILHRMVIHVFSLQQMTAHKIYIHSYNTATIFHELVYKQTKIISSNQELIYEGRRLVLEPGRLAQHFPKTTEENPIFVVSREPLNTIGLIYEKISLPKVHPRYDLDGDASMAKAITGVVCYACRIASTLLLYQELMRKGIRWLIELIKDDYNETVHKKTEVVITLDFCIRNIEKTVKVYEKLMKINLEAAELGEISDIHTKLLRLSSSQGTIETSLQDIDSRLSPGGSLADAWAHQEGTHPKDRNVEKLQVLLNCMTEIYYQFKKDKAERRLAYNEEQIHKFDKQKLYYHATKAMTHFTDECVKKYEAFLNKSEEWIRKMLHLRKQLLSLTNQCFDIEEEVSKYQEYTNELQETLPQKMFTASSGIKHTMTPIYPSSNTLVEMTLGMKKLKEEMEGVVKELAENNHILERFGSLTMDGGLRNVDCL
Method in brief: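 Caliper LabChip mobility-shift readout of substrate and product after 90 min of TBK1 reaction at 25° C and stop-buffer addition. Compounds tested in 1:4 serial dilution over 10 points from 30 uM final at 1% DMSO; staurosporine 10 uM final defines full inhibition.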

[3] = system: phosphorylation of the IRF-3 protein in MDA-MB-468 cells; test: pIRF3 immunocytochemistry cell based assay; conditions: Homo sapiens
Method in brief: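 After 2 h stimulation with Poly(I:C) (10 ug/ml), following 1 h compound pre-treatment (10-point, 3-fold dilution, top 10 uM), MDA-MB-468 cells were fixed and stained with anti-pIRF3 antibody. pIRF3 fluorescence was normalized to PI staining or cell count on an Acumen cytometer. IC50 curves were derived from this.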

[4] = MDA-MB-468 cells, Poly(I:C) stimulation, read-out: pIRF3 IC50

| IC50 [1] | IC50 [2] | IC50 [3, 4] | SMILES | IC50 ([3]; MDA-MB-468, read-out: pIRF3 IC50) |
| --- | --- | --- | --- | --- |
| < 100 nM | < 100 nM | 100 to 1000 nM | COc1cc(C(=O)N(C)C)ccc1-c1cc2nccc(-c3ccc(OC4CCOC5(CC5)C4)c(C#N)c3)c2o1 (stereo not drawn) [Compound 290, 4-[7-(3-cyano-4-[4-oxaspiro[2.5]octan-7-yloxy]phenyl)furo[3,2-b]pyridin-2-yl]-3-methoxy-N,N-dimethylbenzamide] |  |
| < 100 nM | < 100 nM | 100 to 1000 nM | COc1cc(C(=O)N(C)C)ncc1-c1cc2nccc(-c3ccc(OC4CCNCC4(F)F)c(C#N)c3)c2o1 (stereo not drawn) [Compound 418, 5-(7-[3-cyano-4-[(3,3-difluoropiperidin-4-yl)oxy]phenyl]furo[3,2-b]pyridin-2-yl)-4-methoxy-N,N-dimethylpyridine-2-carboxamide hydrochloride] |  |
| < 100 nM | < 100 nM | 100 to 1000 nM | COc1cc(C(=O)NC2CCNCC2)ccc1-c1cc2nccc(-c3ccc(OC4CCOCC4)c(C#N)c3)c2o1 [Compound 62, 4-{7-[3-Cyano-4-(tetrahydro-pyran-4-yloxy)-phenyl]-furo[3,2-b]pyridin-2-yl}-3-methoxy-N-piperidin-4-yl-benzamide hydrochloride] |  |
| < 100 nM | < 100 nM | 100 to 1000 nM | COc1cc(C(=O)NC2CCC(=O)NC2C)ccc1-c1cc2nccc(-c3ccc(OC4CCOCC4)c(C#N)c3)c2o1 (stereo not drawn) [Compound 369, 4-[7-[3-cyano-4-(oxan-4-yloxy)phenyl]furo[3,2-b]pyridin-2-yl]-3-methoxy-N-(2-methyl-6-oxopiperidin-3-yl)benzamide] |  |
| < 100 nM | < 100 nM | < 100 nM | COc1cc(C(=O)N2CC3CN(C)CC3C2)ccc1-c1cc2nccc(-c3ccc(OC4CCOCC4)c(C#N)c3)c2o1 (stereo not drawn) [Compound 9, 5-{2-[2-Methoxy-4-(5-methyl-hexahydro-pyrrolo[3,4-c]pyrrole-2-carbonyl)-phenyl]-furo[3,2-b]pyridin-7-yl}-2-(tetrahydro-pyran-4-yloxy)-benzonitrile] |  |
| < 100 nM | < 100 nM | 100 to 1000 nM | COc1cc(C(=O)N2CCN(C)CC2)cnc1-c1cc2nccc(-c3ccc(N4CCC(F)C4)c(C#N)c3)c2o1 (stereo not drawn) [Compound 460, 2-(3-fluoropyrrolidin-1-yl)-5-(2-[3-methoxy-5-[(4-methylpiperazin-1-yl)carbonyl]pyridin-2-yl]furo[3,2-b]pyridin-7-yl)benzonitrile] |  |
| 100 to 1000 nM | 100 to 1000 nM | 100 to 1000 nM | COc1cc(C(=O)N(C)C)ncc1-c1cc2nccc(-c3ccc(OC4CCN(C)C4)c(C#N)c3)c2o1 (stereo not drawn) [Compound 430, 5-(7-[3-cyano-4-[(1-methylpyrrolidin-3-yl)oxy]phenyl]furo[3,2-b]pyridin-2-yl)-4-methoxy-N,N-dimethylpyridine-2-carboxamide] |  |
| < 100 nM | < 100 nM | 100 to 1000 nM | COc1cc(C(=O)N(C)OC)ccc1-c1cc2nccc(-c3ccc(OC4CCOCC4)c(C#N)c3)c2o1 [Compound 53, 4-{7-[3-Cyano-4-(tetrahydro-pyran-4-yloxy)-phenyl]-furo[3,2-b]pyridin-2-yl}-3,N-dimethoxy-N-methyl-benzamide] |  |
| < 100 nM | < 100 nM | 100 to 1000 nM | COc1cc(C(=O)N(C)C)cnc1-c1cc2nccc(-c3ccc(OC4CCN(C)CC4(F)F)c(C#N)c3)c2o1 (stereo not drawn) [Compound 404, 6-(7-[3-cyano-4-[(3,3-difluoro-1-methylpiperidin-4-yl)oxy]phenyl]furo[3,2-b]pyridin-2-yl)-5-methoxy-N,N-dimethylpyridine-3-carboxamide] |  |
| < 100 nM | < 100 nM | < 100 nM | COc1cc(C(=O)N2CC[C@H](O)C2)ccc1-c1cc2nccc(-c3ccc(OC4CCOCC4)c(C#N)c3)c2o1 [Compound 14, 5-{2-[4-((S)-3-Hydroxy-pyrrolidine-1-carbonyl)-2-methoxy-phenyl]-furo[3,2-b]pyridin-7-yl}-2-(tetrahydro-pyran-4-yloxy)-benzonitrile] |  |
| < 100 nM | < 100 nM | 100 to 1000 nM | COc1nc(C(=O)N(C)C)ccc1-c1cc2nccc(-c3ccc(N4CC[C@@H](F)C4)c(C#N)c3)c2o1 [Compound 313, 5-{7-[3-Cyano-4-((R)-3-fluoro-pyrrolidin-1-yl)-phenyl]-furo[3,2-b]pyridin-2-yl}-6-methoxy-pyridine-2-carboxylic acid dimethylamide] |  |

| SMILES | IC50 [1] | IC50 [2] | IC50 [3, 4] | IC50 ([3]; MDA-MB-468, read-out: pIRF3 IC50) |
| --- | --- | --- | --- | --- |
| COc1cc(C(=O)NC2CN3CCC2CC3)ccc1-c1cc2nccc(-c3ccc(N4CC[C@@H](F)C4)c(C#N)c3)c2o1 (stereo partly drawn) [Compound 146, N-(1-Aza-bicyclo[2.2.2]oct-3-yl)-4-{7-[3-cyano-4-((R)-3-fluoro-pyrrolidin-1-yl)-phenyl]-furo[3,2-b]pyridin-2-yl}-3-methoxy-benzamide] | < 100 nM | < 100 nM | 100 to 1000 nM |  |
| COc1cc(C(=O)NC2CN3CCC2CC3)cnc1-c1cc2nccc(-c3ccc(N4CC[C@H](F)C4)c(C#N)c3)c2o1 (stereo partly drawn) [Compound 439, N—(S)-1-Aza-bicyclo[2.20.2]oct-3-yl-6-{7-[3-cyano-4-((S)-3-fluoro-pyrrolidin-1-yl)-phenyl]-furo[3,2-b]pyridin-2-yl}-5-methoxy-nicotinamide] | < 100 nM | < 100 nM | 100 to 1000 nM |  |
| COc1cc(C(=O)N[C@H]2COC[C@@H]2N(C)C)ccc1-c1cc2nccc(-c3ccc(OC4CCOCC4)c(C#N)c3)c2o1 [Compound 346, 4-[7-[3-cyano-4-(oxan-4-yloxy)phenyl]furo[3,2-b]pyridin-2-yl]-N-[(3R,4R)-4-(dimethylamino)oxolan-3-yl]-3-methoxy benzamide] | < 100 nM | < 100 nM |  | 100 to 1000 nM |
| COc1cc(C(=O)NC2CN3CCC2CC3)ccc1-c1cc2nccc(-c3ccc(N4CC[C@H](F)C4)c(C#N)c3)c2o1 (stereo partly drawn) [Compound 72, N-(1-Aza-bicyclo[2.2.2]oct-3-yl)-4-{7-[3-cyano-4-((S)-3-fluoro-pyrrolidin-1-yl)-phenyl]-furo[3,2-b]pyridin-2-yl}-3-methoxy-benzamide] | < 100 nM | < 100 nM | 100 to 1000 nM |  |
